Laboratory results: patent US7785807B2, “Voltage-gated, pH-sensitive anion channel and its novel splice variant involved in taste sensation” (Monell Chemical Senses Center, priority 2004, dated 2010)
“Also recorded” adds a separate entry of the source.

What was measured:
Format in all cases: cell-based
human ClC-4 = target: T1, human ClC-4 (Homo sapiens, UniProt P51793); assay: Two-electrode voltage-clamp recording of human ClC-4 expressed in Xenopus oocytes, chloride channel inhibitor effect
T1 construct: one clone was isolated, which contained the entire coding region; expressed in transfected cells; host or cells: Xenopus laevis oocytes injected with in vitro transcribed cRNA
T1 sequence (P51793 1-760): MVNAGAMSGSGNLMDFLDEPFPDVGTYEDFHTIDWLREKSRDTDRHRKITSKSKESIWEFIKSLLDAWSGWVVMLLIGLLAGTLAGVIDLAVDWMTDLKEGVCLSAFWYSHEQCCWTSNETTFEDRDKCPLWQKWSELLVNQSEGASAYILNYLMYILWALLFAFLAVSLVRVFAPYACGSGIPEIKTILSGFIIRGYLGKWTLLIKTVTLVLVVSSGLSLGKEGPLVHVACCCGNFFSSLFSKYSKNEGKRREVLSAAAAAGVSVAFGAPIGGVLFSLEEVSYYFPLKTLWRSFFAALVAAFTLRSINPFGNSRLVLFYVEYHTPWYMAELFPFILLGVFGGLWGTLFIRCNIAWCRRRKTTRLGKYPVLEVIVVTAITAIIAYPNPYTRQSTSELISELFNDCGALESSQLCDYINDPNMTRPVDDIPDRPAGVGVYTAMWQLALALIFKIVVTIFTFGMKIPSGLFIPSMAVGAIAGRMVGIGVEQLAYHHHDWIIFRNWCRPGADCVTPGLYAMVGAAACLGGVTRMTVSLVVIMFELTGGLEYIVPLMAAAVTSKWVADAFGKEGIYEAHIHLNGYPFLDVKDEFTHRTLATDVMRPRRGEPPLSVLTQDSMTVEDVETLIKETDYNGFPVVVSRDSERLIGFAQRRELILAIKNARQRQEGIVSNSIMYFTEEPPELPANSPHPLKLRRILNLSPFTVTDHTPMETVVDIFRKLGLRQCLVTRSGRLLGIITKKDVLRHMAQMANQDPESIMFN
Procedure: (§1) ClC-4 and ClC-4A cDNAs were subcloned into the expression vector pCR Blunt II TOPO. Capped sense cRNA was synthesized from the linearized expression constructs by T7 RNA polymerase with nMessage mMachine in vitro transcription kit and tailed with polyA tailing kit (Ambion). The synthesized cRNA products were phenol extracted, ethyl alcohol precipitated, and then dissolved in nuclease-free water at about 0.5 ng/nl for injection. Dumont stage V or VI oocytes were obtained from adult female laboratory bred Xenopus laevis, and their follicles were removed by collagenase digestion. […] Membrane currents were recorded using the two-electrode voltage-clamp technique in ND96 solution (96 mM NaCl, 2 mM KCl, 1.8 mM CaCl2, 1 mM MgCl2, 5 mM Na-HEPES, pH 7.4). […]
(§2) Recording and current-passing micropipettes with tip resistance <5 MΩ when filled with 3 M KCl were pulled from glass capillaries (A-M Systems Inc., Carlsburg, Wash., USA) using a horizontal puller (Suffer P-80/PC). Currents were recorded with a GeneClamp 500 amplifier, digitized with a Digidata 1200 A/D-D/A system, and stored on a computer running pCLAMP 6 software (all from Axon Instruments, Foster City, Calif., USA). […]

mouse ClC-4 = target: T2, mouse ClC-4 (Mus musculus, UniProt Q61418); assay: Two-electrode voltage-clamp recording of mouse ClC-4 expressed in Xenopus oocytes, chloride channel inhibitor effect
T2 construct: a pair of PCR primers was designed to encompass the entire coding region; expressed in transfected cells; host or cells: Xenopus laevis oocytes injected with in vitro transcribed cRNA
T2 sequence (Q61418 1-747): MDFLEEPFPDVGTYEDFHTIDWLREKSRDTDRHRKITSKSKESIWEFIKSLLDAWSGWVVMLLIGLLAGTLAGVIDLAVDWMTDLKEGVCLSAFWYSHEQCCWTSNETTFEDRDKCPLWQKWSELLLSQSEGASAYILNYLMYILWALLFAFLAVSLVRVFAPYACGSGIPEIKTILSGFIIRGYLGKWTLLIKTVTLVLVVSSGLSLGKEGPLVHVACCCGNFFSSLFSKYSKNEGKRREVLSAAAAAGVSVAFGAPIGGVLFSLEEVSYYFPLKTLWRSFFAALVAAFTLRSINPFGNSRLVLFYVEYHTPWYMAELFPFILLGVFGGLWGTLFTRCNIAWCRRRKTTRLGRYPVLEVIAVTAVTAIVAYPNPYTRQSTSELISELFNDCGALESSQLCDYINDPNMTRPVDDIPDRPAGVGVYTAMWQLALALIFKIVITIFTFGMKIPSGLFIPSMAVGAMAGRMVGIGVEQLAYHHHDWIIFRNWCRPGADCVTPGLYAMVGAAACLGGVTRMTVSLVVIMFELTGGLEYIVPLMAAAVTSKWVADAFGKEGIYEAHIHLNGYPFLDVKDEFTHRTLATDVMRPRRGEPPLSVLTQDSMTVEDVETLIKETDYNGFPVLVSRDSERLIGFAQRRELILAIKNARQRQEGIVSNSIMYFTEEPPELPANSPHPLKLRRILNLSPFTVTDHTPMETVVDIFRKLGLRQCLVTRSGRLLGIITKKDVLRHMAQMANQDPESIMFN
Procedure: as §1, §2

ClC-4A = target: T3, ClC-4A (Mus musculus, UniProt Q61418); assay: Two-electrode voltage-clamp recording of ClC-4A expressed in Xenopus oocytes, chloride channel inhibitor effect
T3 construct: expressed in transfected cells; host or cells: Xenopus laevis oocytes injected with in vitro transcribed cRNA
T3 sequence (Q61418 61-747): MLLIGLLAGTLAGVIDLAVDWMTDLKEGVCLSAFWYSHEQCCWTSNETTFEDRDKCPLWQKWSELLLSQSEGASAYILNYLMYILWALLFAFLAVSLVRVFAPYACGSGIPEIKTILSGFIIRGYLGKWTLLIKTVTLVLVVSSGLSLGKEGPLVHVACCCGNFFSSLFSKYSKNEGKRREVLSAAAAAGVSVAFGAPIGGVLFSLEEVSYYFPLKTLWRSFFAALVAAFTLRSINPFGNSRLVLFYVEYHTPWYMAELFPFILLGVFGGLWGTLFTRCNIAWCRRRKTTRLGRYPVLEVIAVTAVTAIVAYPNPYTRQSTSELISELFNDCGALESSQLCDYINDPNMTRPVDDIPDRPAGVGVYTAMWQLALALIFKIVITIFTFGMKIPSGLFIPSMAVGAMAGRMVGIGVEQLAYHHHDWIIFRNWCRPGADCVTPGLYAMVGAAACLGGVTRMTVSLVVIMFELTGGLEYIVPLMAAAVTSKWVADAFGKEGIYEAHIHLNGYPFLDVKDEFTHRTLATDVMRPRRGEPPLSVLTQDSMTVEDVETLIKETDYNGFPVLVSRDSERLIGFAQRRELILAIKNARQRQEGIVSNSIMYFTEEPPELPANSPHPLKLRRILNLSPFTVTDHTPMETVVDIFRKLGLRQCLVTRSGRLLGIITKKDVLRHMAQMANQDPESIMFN
Procedure: as §1, §2

[1] = 0.3 mM NFA, pH 7.4, Xenopus oocytes
[2] = 0.1 mM NPPB, optimal pH, Xenopus oocytes

O=C(O)c1cccnc1Nc1cccc(C(F)(F)F)c1 [NFA, niflumic acid]
inhibition on ion channel conductance (human ClC-4; [1]): only a slight inhibitory effect
inhibition on ion channel conductance (mouse ClC-4; [1]): only a slight inhibitory effect
inhibition on ion channel conductance (ClC-4A; 0.3 mM NFA, pH 5.5, Xenopus oocytes): significantly inhibited

O=C(O)c1cc([N+](=O)[O-])ccc1NCCCc1ccccc1 [NPPB, 5-nitro-2-(3-phenylpropylamino)-benzoic acid]
inhibition on ion channel conductance (human ClC-4; [2]): no apparent effect
inhibition on ion channel conductance (mouse ClC-4; [2]): no apparent effect
inhibition on ion channel conductance (ClC-4A; [2]): slightly inhibit; also recorded: inhibited
